Measurements published in paper PMC10353390, “Biological and Structural Analyses of New Potent Allosteric Inhibitors of HIV-1 Integrase” (Antimicrobial Agents and Chemotherapy, 2023).
Read-outs that look alike come from different tables or passages of the source.

How the values were obtained:
HXB2 HIV-1 strain = test: Multiple-round infection assay in MT4 cells, HXB2; assay type: cell-based; conditions: Human immunodeficiency virus 1, HXB2; multiple-round infection, MT4 cells; mean ± SD, n > 5; read-out: EC50 HXB2
Description: Antiretroviral activity of BDM-2 and its analogs was first evaluated in lymphoblastoid cell line MT4 and in primary human T lymphocytes using NL4-3 and HXB2 laboratory HIV-1 isolates.
(§1) MT4 cells growing exponentially at the density of 10^6/mL were infected with HIV-1 strain NL4-3 at a multiplicity of infection (MOI) of 0.001 for 2 h in the presence of different concentrations of compounds, and the CellTiter-Glo luminescent reagent (Promega) was used to quantify cell viability as described previously ([12]).

NL4-3 HIV-1 strain = test: Multiple-round infection assay in MT4 cells, NL4-3; assay type: cell-based; conditions: MT4 cells
[1] = Cytotoxicity assay in MT4 cells; assay type: cell-based; conditions: human, MT4 cells (proliferating human T-cell line), CellTiter-Glo
Source text: Growth inhibition was monitored in a proliferating human T-cell line (MT4) with different concentrations of compounds, using the CellTiter-Glo luminescent reagent (Promega), as previously described ([12]).

[2] = tested on: lab-adapted and clinical HIV-1 isolates; test: Infection assays in primary T CD4+ lymphocytes; assay type: cell-based; conditions: Human immunodeficiency virus 1, Lymphocyte
[3] = tested on: VSV-G-pseudotyped NL4-3Δenv-luc; test: microbe, parasite or virus in culture; assay type: cell-based, HIV-1
[4] = tested on: recombinant NL4-3 viruses with polymorphisms at IN positions 124 and 125; test: Multiple-round infection of MT4 cells with recombinant NL4-3 viruses polymorphic at IN positions 124 and 125; assay type: cell-based, HIV-1
Source text: Located on the HIV-1 IN CCD dimerization interface, the principal INLAI binding pocket overlaps with a hot spot of amino acid sequence polymorphism involving IN residues 124 and 125 ([16]). To test if the new INLAIs maintained antiviral activity against major polymorphisms, we introduced all major combinations of residues found in circulating HIV-1 strains at positions 124 and 125 into NL4-3 HIV-1 molecular clone. In total, we evaluated 15 such combinations that collectively covered 98% of all HIV-1 clade polymorphisms involving these positions ([48]). To gauge effects on the antiviral activity, we calculated the EC50 fold change (FC) relative to wild type NL4-3 HIV-1 strain that features Thr124 and Thr125 (TT; specific polymorphisms are referred to by a single letter amino acid code).
as §1

[5] = tested on: primary HIV-1 isolates with polymorphisms at IN positions 124 and 125; test: Multiple-round infection of MT4 cells with primary HIV-1 isolates polymorphic at IN positions 124 and 125; assay type: cell-based; conditions: primary isolate
Description: Next, we evaluated the potency of the BDM-2 series of INLAIs against several primary HIV-1 isolates with polymorphisms at IN positions 124 and 125.
as §1

[6] = tested on: HIV-1 strains resistant to INSTIs, NRTIs, NNRTIs or PIs; assay type: cell-based
Description: To this end, we used both recombinant viruses constructed by introducing described drug resistance mutations into NL4-3 HIV-1 clone as well as drug-resistant clinical HIV-1 isolates.
as §1

[7] = INSTI-resistant, NL4-3 background
[8] = INSTI-resistant, primary patient-derived strain

## C[C@@H]1CCO[C@H]2Cn3cc(C(=O)NCc4ccc(F)cc4F)c(=O)c(O)c3C(=O)N12 [DTG, dolutegravir, reference compound]
HXB2 HIV-1 strain
  EC50: 1.9 ± 1 nM
NL4-3 HIV-1 strain; Human immunodeficiency virus 1, NL43, multiple-round infection, from dose response curves, read-out: EC90 NL4-3
  EC90: 6.3 ± 4.4 nM
NL4-3 HIV-1 strain; Human immunodeficiency virus 1, NL43, multiple-round infection, mean ± SD, n > 5, read-out: EC50 NL4-3
  EC50: 2.7 ± 1.3 nM
NL4-3 HIV-1 strain
  Selectivity index CC50/EC50 NL4-3: 18,888
[1]
  CC50: 51000 ± 28000 nM
[2]; read-out: EC50 33913N (B)
  EC50: 0.35 ± 0.42 nM
[2]; read-out: EC50 HXB2 (B)
  EC50: 0.17 ± 0.01 nM
[2]; read-out: EC50 KER2008 (A)
  EC50: 0.4 ± 0.21 nM
[2]; read-out: EC50 NL4-3 (B)
  EC50: 0.53 ± 0.16 nM
[2]; read-out: EC50 NP1525 (CRF01_AE)
  EC50: 0.21 ± 0.09 nM
[2]; read-out: EC50 NP1538 (B)
  EC50: 0.29 ± 0.13 nM
[3]
  EC50 ratio (single/multiple-round infection): 0.16
[3]; Human immunodeficiency virus 1, NL43, MT4, read-out: EC50 in single-round infection
  EC50: 0.44 ± 0.13 nM
[4]; recombinant NL4-3, IN 124/125 AA
  Fold change in EC50 relative to parental NL4-3, AA: 1
[4]; recombinant NL4-3, IN 124/125 AM
  Fold change in EC50 relative to parental NL4-3, AM: 2
[4]; recombinant NL4-3, IN 124/125 AT
  Fold change in EC50 relative to parental NL4-3, AT: 1
[4]; recombinant NL4-3, IN 124/125 AV
  Fold change in EC50 relative to parental NL4-3, AV: 2
[4]; recombinant NL4-3, IN 124/125 GA
  Fold change in EC50 relative to parental NL4-3, GA: 2
[4]; recombinant NL4-3, IN 124/125 GT
  Fold change in EC50 relative to parental NL4-3, GT: 2
[4]; recombinant NL4-3, IN 124/125 NA
  Fold change in EC50 relative to parental NL4-3, NA: 1
[4]; recombinant NL4-3, IN 124/125 NT
  Fold change in EC50 relative to parental NL4-3, NT: 1
[4]; recombinant NL4-3, IN 124/125 NV
  Fold change in EC50 relative to parental NL4-3, NV: 2
[4]; recombinant NL4-3, IN 124/125 SA
  Fold change in EC50 relative to parental NL4-3, SA: 1
[4]; recombinant NL4-3, IN 124/125 ST
  Fold change in EC50 relative to parental NL4-3, ST: 2
[4]; recombinant NL4-3, IN 124/125 TA
  Fold change in EC50 relative to parental NL4-3, TA: 1
[4]; recombinant NL4-3, IN 124/125 TM
  Fold change in EC50 relative to parental NL4-3, TM: 2
[4]; recombinant NL4-3, IN 124/125 TV
  Fold change in EC50 relative to parental NL4-3, TV: 2
[5]; IN 124/125 AA
  Fold change in EC50 relative to parental NL4-3, CAM2BBY (CRF02): 1
  Fold change in EC50 relative to parental NL4-3, E0836M4 (D): 2
  Fold change in EC50 relative to parental NL4-3, KER2008 (A): 1
  Fold change in EC50 relative to parental NL4-3, NP1525 (CRF01): 2
  Fold change in EC50 relative to parental NL4-3, NP1695 (CRF02): 2
  Fold change in EC50 relative to parental NL4-3, TZA125 (C): 2
[5]; IN 124/125 GA
  Fold change in EC50 relative to parental NL4-3, KSM4030 (A): 2
  Fold change in EC50 relative to parental NL4-3, vGA (C): 2
[5]; IN 124/125 NA
  Fold change in EC50 relative to parental NL4-3, 99ET14 (C): 2
  Fold change in EC50 relative to parental NL4-3, NP1538 (B): 1
  Fold change in EC50 relative to parental NL4-3, vNA_1 (B): 2
  Fold change in EC50 relative to parental NL4-3, vNA_2 (CRF02): 2
[5]; IN 124/125 NV
  Fold change in EC50 relative to parental NL4-3, vNV (B): 1
[5]; IN 124/125 SA
  Fold change in EC50 relative to parental NL4-3, vSA_1 (B): 1
  Fold change in EC50 relative to parental NL4-3, vSA_2 (CRF02): 2
[5]; IN 124/125 TA
  Fold change in EC50 relative to parental NL4-3, vTA_1 (B): 1
  Fold change in EC50 relative to parental NL4-3, vTA_2 (CRF02): 1
[6]; [7]
  Fold change in EC50 relative to NL4-3, G140S: 0.6
  Fold change in EC50 relative to NL4-3, G140S/Q148H: 2
  Fold change in EC50 relative to NL4-3, N155H: 0.3
  Fold change in EC50 relative to NL4-3, Q148H: 0.3
  Fold change in EC50 relative to NL4-3, Y143R: 0.4
[6]; [8]
  Fold change in EC50 relative to NL4-3, E92Q/N155H (pat.): 1
  Fold change in EC50 relative to NL4-3, G140S/Q148H (pat.): 3
  Fold change in EC50 relative to NL4-3, T97A/N155H (pat.): 3
[6]; NRTI-resistant clone
  Fold change in EC50 relative to NL4-3, NLAY351717: 0.4
[6]; NRTI/NNRTI-resistant clone
  Fold change in EC50 relative to NL4-3, NLAY351753: 1
[6]; NRTI/NNRTIs group, NL4-3 background
  Fold change in EC50 relative to NL4-3, K103N/Y181C: 0.3
[6]; PI-resistant virus
  Fold change in EC50 relative to NL4-3, ARP-4595: 1
  Fold change in EC50 relative to NL4-3, ARP-4596: 0.5
  Fold change in EC50 relative to NL4-3, ARP-11801: 1
  Fold change in EC50 relative to NL4-3, ARP-11803: 1
  Fold change in EC50 relative to NL4-3, ARP-11807: 2
  Fold change in EC50 relative to NL4-3, ARP-11808: 1
